Reference: ChEMBL document CHEMBL4118274, “Synthesis and biological evaluation of pyridine-linked indanone derivatives: Potential agents for inflammatory bowel disease” (Bioorg Med Chem Lett, 2018)
Active and inactive are the calls of the source. The calls are words filed in the database; no cut-off is given here.

Assays:
[1] = target: Tumor necrosis factor (Homo sapiens) (UniProt P01375); experiment: Inhibition of TNFalpha (unknown origin)-induced NFkappaB transcriptional activity in human HT-29 cells at 10 uM pretreated with cells for 1 hr followed by TNFalpha induction for 3 hrs by dual luciferase reporter gene assay; format: cell-based
Rattus norvegicus [2] = experiment: In vivo of inhibition of TNBS-induced decrease in body weight in TNBS-induced colitis Sprague-Dawley rat model at 25 mg/kg/day, po administered on day of TNBS administration and on four consecutive days measured on day 6; format: functional, organism-based
Rattus norvegicus [3] = experiment: In vivo of inhibition of TNFalpha-induced up-regulation of MCP-1 expression in TNBS-induced colitis Sprague-Dawley rat model at 25 mg/kg/day, po administered on day of TNBS administration and on four consecutive days measured on day 6 by Western blot method; format: functional, organism-based
Rattus norvegicus [4] = experiment: In vivo of inhibition of TNBS-induced increase in myeloperoxidase level in TNBS-induced colitis Sprague-Dawley rat model colon tissue at 25 mg/kg/day, po administered on day of TNBS administration and on four consecutive days measured on day 6; format: functional, organism-based
Rattus norvegicus [5] = experiment: In vivo of inhibition of TNBS-induced increase in colon weight in TNBS-induced colitis Sprague-Dawley rat model at 25 mg/kg/day, po administered on day of TNBS administration and on four consecutive days measured on day 6; format: functional, organism-based
Rattus norvegicus [6] = experiment: In vivo of inhibition of TNFalpha-induced up-regulation of ICAM-1 expression in TNBS-induced colitis Sprague-Dawley rat model at 25 mg/kg/day, po administered on day of TNBS administration and on four consecutive days measured on day 6 by Western blot method; format: functional, organism-based
[7] = target: Tumor necrosis factor (Homo sapiens) (UniProt P01375); experiment: Inhibition of TNFalpha (unknown origin)-induced SNAIL expression in human HT-29 cells at 10 uM pretreated with cells for 1 hr followed by TNFalpha induction for 3 hrs by Western blot analysis; format: cell-based
Rattus norvegicus [8] = experiment: In vivo of inhibition of TNBS-induced up-regulation of TNFalpha in TNBS-induced colitis Sprague-Dawley rat model at 25 mg/kg/day, po administered on day of TNBS administration and on four consecutive days measured on day 6 by Western blot method; format: functional, organism-based
Rattus norvegicus [9] = experiment: In vivo of inhibition of TNBS-induced up-regulation of IL-1beta in TNBS-induced colitis Sprague-Dawley rat model at 25 mg/kg/day, po administered on day of TNBS administration and on four consecutive days measured on day 6 by Western blot method; format: functional, organism-based
Rattus norvegicus [10] = experiment: In vivo of inhibition of TNFalpha-induced decrease in E-cadherin expression in TNBS-induced colitis Sprague-Dawley rat model at 25 mg/kg/day, po administered on day of TNBS administration and on four consecutive days measured on day 6 by Western blot method; format: functional, organism-based
[11] = target: Tumor necrosis factor (Homo sapiens) (UniProt P01375); experiment: Inhibition of TNFalpha (unknown origin)-induced MCP-1 expression in human HT-29 cells at 10 uM preincubated with cells for 1 hr followed by TNFalpha induction of 3 hrs by Western blot analysis; format: cell-based
[12] = target: Tumor necrosis factor (Homo sapiens) (UniProt P01375); experiment: Potency index, ratio of test compound activity to 5-aminosalicylate activity for inhibition of TNFalpha (unknown origin)-induced adhesion of BCECF fluorescence-labeled human U937 cells to human HT-29 cells
[13] = target: Tumor necrosis factor (Homo sapiens) (UniProt P01375); experiment: Inhibition of TNFalpha (unknown origin)-induced ICAM-1 expression in human HT-29 cells at 10 uM preincubated with cells for 1 hr followed by TNFalpha induction of 3 hrs by Western blot analysis; format: cell-based
Rattus norvegicus [14] = experiment: In vivo of inhibition of TNFalpha-induced SNAIL expression in TNBS-induced colitis Sprague-Dawley rat model at 25 mg/kg/day, po administered on day of TNBS administration and on four consecutive days measured on day 6 by Western blot method; format: functional, organism-based
[15] = target: Tumor necrosis factor (Homo sapiens) (UniProt P01375); experiment: Inhibition of TNFalpha (unknown origin)-induced adhesion of BCECF fluorescence-labeled human U937 cells to human HT-29 cells at 10 uM measured at 3 hrs post TNFalpha stimulation relative to control
[16] = target: Tumor necrosis factor (Homo sapiens) (UniProt P01375); experiment: Inhibition of TNFalpha (unknown origin)-induced decrease in E-cadherin expression in human HT-29 cells at 10 uM pretreated with cells for 1 hr followed by TNFalpha induction for 3 hrs by Western blot analysis; format: cell-based
[17] = target: Tumor necrosis factor (Homo sapiens) (UniProt P01375); experiment: Potency index, ratio of 5-aminosalicylate IC50 to test compound IC50 for TNFalpha (unknown origin)-induced adhesion of BCECF fluorescence-labeled human U937 cells to human HT-29
Rattus norvegicus [18] = experiment: In vivo of inhibition of TNBS-induced decrease in body weight in TNBS-induced colitis Sprague-Dawley rat model at 300 mg/kg/day, po administered on day of TNBS administration and on four consecutive days measured on day 6; format: functional, organism-based
Rattus norvegicus [19] = experiment: In vivo of inhibition of TNBS-induced increase in colon weight in TNBS-induced colitis Sprague-Dawley rat model at 300 mg/kg/day, po administered on day of TNBS administration and on four consecutive days measured on day 6; format: functional, organism-based
Rattus norvegicus [20] = experiment: In vivo of inhibition of TNBS-induced increase in myeloperoxidase level in TNBS-induced colitis Sprague-Dawley rat model colon tissue at 300 mg/kg/day, po administered on day of TNBS administration and on four consecutive days measured on day 6; format: functional, organism-based
[21] = target: Tumor necrosis factor (Homo sapiens) (UniProt P01375); experiment: Inhibition of TNFalpha (unknown origin)-induced adhesion of BCECF fluorescence-labeled human U937 cells to human HT-29 cells at 20 mM measured at 3 hrs post TNFalpha stimulation relative to control

Tumor necrosis factor (Homo sapiens), sequence (P01375 whole entry): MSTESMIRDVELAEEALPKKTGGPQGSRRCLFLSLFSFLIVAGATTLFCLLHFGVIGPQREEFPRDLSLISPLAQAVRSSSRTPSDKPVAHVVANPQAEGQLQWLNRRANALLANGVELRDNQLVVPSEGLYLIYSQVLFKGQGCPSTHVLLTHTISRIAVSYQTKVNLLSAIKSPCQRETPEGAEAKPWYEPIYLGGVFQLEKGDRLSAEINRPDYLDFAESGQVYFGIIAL

O=C1/C(=C/c2ccncc2)Cc2c(O)cccc21
inhibition [1]: Active
inhibition (Rattus norvegicus [2]): Active
inhibition (Rattus norvegicus [3]): Active
inhibition (Rattus norvegicus [4]): Active
inhibition (Rattus norvegicus [5]): Active
inhibition (Rattus norvegicus [6]): Active
inhibition [7]: Active
inhibition (Rattus norvegicus [8]): Active
inhibition (Rattus norvegicus [9]): Active
inhibition (Rattus norvegicus [10]): Active
inhibition [11]: Active
Ratio [12]: 7 to 23
inhibition [13]: Active
inhibition (Rattus norvegicus [14]): Active
inhibition [15]: 78%
inhibition [16]: Active

O=C1/C(=C/c2cccnc2)Cc2cc(O)ccc21
Ratio [12]: 7 to 23
inhibition [15]: 67%

O=C1/C(=C/c2ccncc2)Cc2ccc(O)cc21
inhibition [1]: Active
inhibition (Rattus norvegicus [2]): Active
inhibition (Rattus norvegicus [3]): Active
inhibition (Rattus norvegicus [4]): Active
inhibition (Rattus norvegicus [5]): Active
inhibition (Rattus norvegicus [6]): Active
inhibition [7]: Active
inhibition (Rattus norvegicus [8]): Active
Ratio IC50 [17]: > 10000
inhibition (Rattus norvegicus [9]): Active
inhibition (Rattus norvegicus [10]): Active
inhibition [11]: Active
Ratio [12]: 7 to 23
inhibition [13]: Active
inhibition (Rattus norvegicus [14]): Active
inhibition [15]: 85.5%
inhibition [16]: Active

O=C(O)c1cc(/N=N/c2ccc(S(=O)(=O)Nc3ccccn3)cc2)ccc1O
inhibition (Rattus norvegicus [18]): Active
inhibition (Rattus norvegicus [19]): Active
inhibition (Rattus norvegicus [20]): Active

O=C1/C(=C/c2ccccn2)Cc2cc(O)ccc21
Ratio [12]: 7 to 23
inhibition [15]: 58.1%

O=C1/C(=C/c2ccccn2)Cc2c(O)cccc21
Ratio [12]: 7 to 23
inhibition [15]: 64.5%

O=C1/C(=C/c2cccnc2)Cc2c(O)cccc21
inhibition [1]: Active
Ratio [12]: 7 to 23
inhibition [15]: 70.8%
inhibition [16]: inactive

O=C1/C(=C/c2cccnc2)Cc2cccc(O)c21
Ratio [12]: 7 to 23
inhibition [15]: 46.1%

CC(C)Oc1ccc2c(c1)C(=O)/C(=C/c1ccncc1)C2
inhibition [15]: 45.7%

COc1cccc2c1C/C(=C\c1ccncc1)C2=O
inhibition [15]: 5.9%

COc1ccc2c(c1)C(=O)/C(=C/c1ccncc1)C2
inhibition [15]: 4.1%

O=C1/C(=C/c2ccncc2)Cc2cc(O)ccc21
Ratio [12]: 7 to 23
inhibition [15]: 26.6%

O=C1/C(=C/c2ccncc2)Cc2cccc(O)c21
inhibition [1]: Active
Ratio [12]: 7 to 23
inhibition [15]: 74.6%
inhibition [16]: inactive

O=C1/C(=C/c2cccnc2)Cc2ccc(O)cc21
inhibition [1]: Active
Ratio [12]: 7 to 23
inhibition [15]: 74.7%
inhibition [16]: inactive

CC(C)Oc1cccc2c1C/C(=C\c1ccncc1)C2=O
inhibition [15]: 60.9%

CCOc1cccc2c1C/C(=C\c1ccncc1)C2=O
inhibition [15]: 51.2%

Nc1ccc(O)c(C(=O)O)c1
inhibition [21]: 52.1%

CCOc1ccc2c(c1)C(=O)/C(=C/c1ccncc1)C2
inhibition [15]: 7.3%

O=C1/C(=C/c2ccccn2)Cc2ccc(O)cc21
Ratio [12]: 7 to 23
inhibition [15]: 54.8%

O=C1/C(=C/c2ccccn2)Cc2cccc(O)c21
Ratio [12]: 7 to 23
inhibition [15]: 46.2%
